Measurements reported in patent US20080032939A1, “Iridoid-saccharide compound and method of using same” (Health Research, Inc., priority 2004, published 2008).

How the values were obtained:
[1] = Preliminary screening of toxicity in treated mice; format: in vivo; conditions: mice treated with compound 3
Protocol: (§1) On day 9, the drug administration was stopped and tumors were allowed to grow until they reached the size of approximately 350 mm^3 in volume. The drug injection was resumed (150 mg/kg/mouse) daily for another 7 days.

colo-26 tumors = assay: In vivo efficacy in mice bearing colo-26 tumors
Protocol: (§2) All the plant products isolated from the bark of Plumeria bicolor were insoluble in water and were dissolved in 1% Tween 80 in 5% dextrose solution. Among these analogs, plumeiride 3 produced good cytotoxicity producing a lethal dose 60% (LD60) with 200 μM, and an LD20 with 400 μM C-17 in colo-26 tumor cells. […] Plumieride 3 was then evaluated for in vivo efficacy in mice (6 mice/group) bearing colo-26 tumors at variable concentrations. […] This response was doubled to 24 days when the dose was increased to 100 mg/kg/mouse (FIG. 3).
as §1

colo-26 tumor cells = assay: In vitro cytotoxicity in Colo-26 tumor cells; format: cell-based
Protocol: Vehicle: 1% Tween 80 in 5% dextrose solution.
as §2

[2] = colo-26 tumor cells, vehicle 1% Tween 80 in 5% dextrose

SMILES: COC(=O)C1=CO[C@@H](O[C@@H]2O[C@H](CO)[C@@H](O)[C@H](O)[C@H]2O)[C@H]2[C@@H]1C=C[C@@]21C=C([C@H](C)O)C(=O)O1 [compound 3, plumieride]
- visible toxicity, body weight, daily habits [1]: no visible toxicity as well as a change in body weight or daily habits
- tumor volume after injections were re-initiated (colo-26 tumors; 150 mg/kg/mouse daily for another 7 days, resumed at tumor size approximately 350 mm^3): regressed to almost half the size
- tumor inhibition (colo-26 tumors; 150 mg/kg/mouse, as long as the drug was injected (until day 9)): complete tumor inhibition
- time with no increase in tumor volume (colo-26 tumors; dose 100 mg/kg/mouse, mice bearing colo-26 tumors): 24 days
- time with no increase in tumor volume (colo-26 tumors; injected daily with 50 mg/kg/mouse, mice bearing colo-26 tumors): 12 days
- tumor growth delay versus untreated control mice (colo-26 tumors; mice bearing colo-26 tumors, variable concentrations): significant tumor growth delay
- LD20 (colo-26 tumor cells; [2]): 400 µM
- lethal dose 60% (LD60) (colo-26 tumor cells; [2]): 200 µM
- relative effectiveness among the components isolated from the bark (colo-26 tumor cells; compared with triterpenoids 1, 2): most effective
